Experimental data from PubChem BioAssay (NCI).
Several values for one entry are separate records, joined by “and”; a condition that tells them apart may be missing. Equal values may be shown once.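 Interpolation was linear, between the two tested concentrations surrounding the appropriate level; five concentrations were tested over 48 hours in 96-well plates. GI50 is the concentration that inhibits growth by half. TGI: total growth inhibition.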

Tests used:
Assay in all cases: DTP human tumour cell line panel, 48 h
SNB-75 CNS = tested on: SNB-75 CNS
A549 NSCLC = tested on: A549 NSCLC
CCRF-CEM leukemia = tested on: CCRF-CEM leukemia
KM12 colon = tested on: KM12 colon
CAKI-1 renal = tested on: CAKI-1 renal
786-0 renal = tested on: 786-0 renal
NCI-H460 lung = tested on: NCI-H460 lung
SK-MEL-2 melanoma = tested on: SK-MEL-2 melanoma
NCI-H226 lung = tested on: NCI-H226 lung
UACC-62 melanoma = tested on: UACC-62 melanoma
OVCAR-4 ovarian = tested on: OVCAR-4 ovarian
ACHN renal = tested on: ACHN renal
NCI-H522 lung = tested on: NCI-H522 lung
NCI/ADR-RES ovarian = tested on: NCI/ADR-RES ovarian
MDA-MB-231 breast = tested on: MDA-MB-231 breast
BT-549 breast = tested on: BT-549 breast

Compound | TGI (SNB-75 CNS) | TGI (A549 NSCLC) | TGI (CCRF-CEM leukemia) | TGI (KM12 colon) | TGI (CAKI-1 renal) | TGI (786-0 renal) | TGI (NCI-H460 lung) | TGI (SK-MEL-2 melanoma) | TGI (NCI-H226 lung) | TGI (UACC-62 melanoma) | TGI (OVCAR-4 ovarian) | TGI (ACHN renal) | TGI (NCI-H522 lung) | TGI (NCI/ADR-RES ovarian) | TGI (MDA-MB-231 breast) | TGI (BT-549 breast) | GI50 (NCI-H522 lung)
COc1ccc(/C(=C/n2ccnc2)C(=O)c2ccc(OC)c(OC)c2)cc1 | > 100 µM | > 100 µM | > 100 µM | > 100 µM | > 100 µM | > 100 µM | > 100 µM | > 100 µM | > 100 µM | > 100 µM | > 100 µM | > 100 µM | > 100 µM | – | – | – | –
O=C1CC2C=CC(O)C(C1)C2 (stereo not drawn) | > 100 µM | – | > 100 µM | > 100 µM | – | > 100 µM | > 100 µM | > 100 µM | > 100 µM | > 100 µM | > 100 µM | > 100 µM | > 100 µM | > 100 µM | > 100 µM | – | –
Cc1cn(C2CC(N)C(CN)O2)c(=O)[nH]c1=O (stereo not drawn) | > 100 µM | > 100 µM | > 100 µM | > 100 µM | > 100 µM | > 100 µM | > 100 µM | > 100 µM | > 100 µM | > 100 µM | > 100 µM | > 100 µM | > 100 µM | > 100 µM | – | > 100 µM | –
N#Cc1c(N)[nH]c(=S)c(C#N)c1-c1cccc(Cl)c1 | – | > 100 µM | – | > 100 µM | > 100 µM | 34.2 µM | > 100 µM | 56.6 µM | > 100 µM | > 100 µM | > 100 µM | > 100 µM | 56.7 µM | > 100 µM | > 100 µM | > 100 µM | –
N#C/C(=C\NC(=S)Nc1ccc(S(=O)(=O)Nc2ccccn2)cc1)C(N)=O | > 100 µM | > 100 µM | > 100 µM | > 100 µM | > 100 µM | > 100 µM | > 100 µM | > 100 µM | > 100 µM | > 100 µM | > 100 µM | > 100 µM | > 100 µM | > 100 µM | > 100 µM | – | –
CC(=O)NC1C(OCc2ccccc2)OC(CO)C(O)C1OCC(=O)N[C@@H](C)C(=O)N[C@H](CCC(=O)NCCNCCNc1c2ccccc2nc2cccc([N+](=O)[O-])c12)C(N)=O (stereo partly drawn) | > 100 µM | > 100 µM | > 100 µM | 78.5 µM | 69 µM | 99.4 µM | 36.5 µM | 46.5 µM | – | 35.2 µM | 40.2 µM | 79.6 µM | 28.1 µM | > 100 µM | > 100 µM | – | –
[N-]=[N+]=Nc1c(Cl)c(=O)n(-c2ccccc2)c2ccccc12 | 50.8 µM | > 100 µM | 56.6 µM | > 100 µM | 50.5 µM | 38.6 µM | > 100 µM | 53.2 µM | – | 29.4 µM | 34.7 µM | 49.2 µM | – | > 100 µM | – | 39.2 µM | –
CO[C@@H](C(=O)OC1C=CC2(CC1)C(=O)N(C)c1ccccc12)c1ccccc1 (stereo partly drawn) | > 100 µM | > 100 µM | > 100 µM | > 100 µM | > 100 µM | > 100 µM | > 100 µM | > 100 µM | – | > 100 µM | > 100 µM | > 100 µM | – | > 100 µM | > 100 µM | – | –
COC1(C)CC2N(C(=O)c3ccccc3)N=C(c3ccccc3)CC2(C)O1 (stereo not drawn) | > 100 µM | > 100 µM | > 100 µM | > 100 µM | > 100 µM | > 100 µM | > 100 µM | > 100 µM | > 100 µM | > 100 µM | > 100 µM | > 100 µM | > 100 µM | – | – | – | –
COC(=O)C1=C(C(=O)OC)C2OC1C1C2C2(C)C(C)=C(C)C1(C)S2=O (stereo not drawn) | 38.1 µM | > 55.8 µM | – | 45.4 µM | 27 µM | 20.2 µM | 36.3 µM | 28 µM | 22.9 µM | 26.1 µM | 24.6 µM | 12.9 µM | 6.49 µM | > 66.5 µM | > 55.7 µM | 25.1 µM | –
O=C1CC(C(O)CO)CC(=O)N1 (stereo not drawn) | – | > 100 µM | > 100 µM | > 100 µM | > 100 µM | > 100 µM | > 100 µM | – | > 100 µM | – | – | > 100 µM | > 100 µM | > 100 µM | > 100 µM | > 100 µM | –
COc1ccc(-c2c(C#N)c(N)n(C3OC(CO)C(O)C(O)C3O)c(=S)c2C#N)cc1 (stereo not drawn) | > 100 µM | > 100 µM | > 100 µM | > 100 µM | > 100 µM | > 100 µM | > 100 µM | > 100 µM | > 100 µM | > 100 µM | > 100 µM | > 100 µM | > 100 µM | – | > 100 µM | > 100 µM | 34.4 µM and 13.2 µM
Cc1cn(C2C=CC(COP(=O)(OCC3=CC(=O)c4ccccc4C3=O)N(C)CCCCCl)O2)c(=O)[nH]c1=O (stereo not drawn) | 11.9 µM | 2.97 µM | 11.9 µM | 28.7 µM | 25.9 µM | 25.3 µM | 11.2 µM | 27.2 µM | 25 µM | 14.3 µM | 23.2 µM | 26.4 µM | 29.4 µM | 36.2 µM | 25.5 µM | – | –
COC(=O)c1cc(CC(C)C)c2c(c1)[nH]c1ccccc12 | > 100 µM | > 100 µM | > 100 µM | > 100 µM | > 100 µM | > 100 µM | > 100 µM | > 100 µM | > 100 µM | > 100 µM | > 100 µM | > 100 µM | > 100 µM | – | – | – | –
O=c1[nH]cnc2c(C3OC(CO)C(O)C3O)c[nH]c12 (stereo not drawn) | > 100 µM | > 100 µM | > 100 µM | > 100 µM | > 100 µM | > 100 µM | > 100 µM | – | > 100 µM | > 100 µM | > 100 µM | > 100 µM | > 100 µM | – | > 100 µM | > 100 µM | –
CC1C(c2cc(C(C)(C)C)c(O)c(C(C)(C)C)c2)c2cc3c(cc2OC1N1CCOCC1)OCO3 (stereo not drawn) | – | 48 µM | > 100 µM | > 100 µM | – | 27.1 µM | 87 µM | 67.3 µM | – | 72.9 µM | – | 22.7 µM | > 100 µM | 87.4 µM | – | – | –
